Data as given in ChEMBL document CHEMBL5614396, “Structure-Activity Relationship Studies in Benzothiadiazoles as Novel Vaccine Adjuvants” (J Med Chem, 2024).
The source made the active and inactive calls. The calls are words filed in the database; no cut-off is given here.

Tests used:
Mus musculus [1] = assay: Immunostimulatory activity in BALB/c mouse assessed as increase in serum CXCL-1 level at 200 nmol, im and measured after 2 to 6 hrs by ELISA; format: functional, organism-based; settings: time 2-6 hrs
[2] = Toxicity in ovalbumin-immunized BALB/c mouse assessed as weight loss at 200 nmol, im co-administered with ovalbumin on day 0 and day 21; format: organism-based; settings: in vivo, 528 h, time 22 day
BMDC [3] = assay: Vaccine adjuvant activity in Balb/c mouse BMDC assessed as increase in IL-12 production at 10 uM incubated for 20 hrs by ELISA (reference value: 1.35 +/-0.1 ng/ml); format: functional
[4] = Cytotoxicity against Balb/c mouse BMDC assessed as cell viability at 10 uM incubated for 20 hrs by MTT assay (reference value: 100 +/-0.6%); format: toxicity, cell-based; settings: BMDC (bone marrow-derived dendritic cells), read-out: Activity
THP-1 = assay: Vaccine adjuvant activity in human THP-1 cells expressing CD63-Turbo-luciferase and CD9-Emerald green fluorescent protein reporter assessed as extracellular vesicle release by measuring reporter activation at 10 uM incubated for 48 hrs by TurboLuc luciferase based chemiluminescence assay (reference value: 0%); format: functional
BMDC [5] = assay: Vaccine adjuvant activity in Balb/c mouse BMDC assessed as induction of Ca2+ influx at 10 uM by Fura-2/8-AM dye based fluorescence analysis (reference value: 0%); format: functional
Mus musculus [6] = assay: Immunostimulatory activity in BALB/c mouse assessed as increase in serum CXCL-1 level at 200 nmol, im and measured after 24 hrs by ELISA; format: functional, organism-based
Mus musculus [7] = assay: Vaccine adjuvant activity against ovalbumin-immunized BALB/c mouse assessed as increase in anti-OVA specific IgG titer in serum at 200 nmol, im co-administered with ovalbumin on day 0 and day 21 and measured on day 28 by ELISA; format: functional, organism-based; settings: time 29.0 day
[8] = Toxicity in ovalbumin-immunized BALB/c mouse assessed as behavioural changes at 200 nmol, im co-administered with ovalbumin on day 0 and day 21; format: organism-based; settings: in vivo, 528 h, time 22 day
Mus musculus [9] = assay: Vaccine adjuvant activity against ovalbumin-immunized BALB/c mouse assessed as induction of antigen-specific Th2 immune responses by measuring increase in anti-OVA specific IgG1 titer in serum at 200 nmol, im co-administered with ovalbumin on day 0 and day 21 and measured on day 28 by ELISA; format: functional, organism-based; settings: time 29.0 day
Mus musculus [10] = assay: Immunostimulatory activity in BALB/c mouse assessed as increase in serum CXCL-1 level at 1 ug, im and measured after 24 hrs by ELISA; format: functional, organism-based; settings: dose 1.0 µg
Mus musculus [11] = assay: Immunostimulatory activity in BALB/c mouse assessed as increase in serum CXCL-10 level at 1 ug, im and measured after 6 hrs by multiplex Luminex beads assay; format: functional, organism-based; settings: dose 1.0 µg
Mus musculus [12] = assay: Immunostimulatory activity in BALB/c mouse assessed as increase in serum CCL-2 level at 1 ug, im and measured after 24 hrs by multiplex Luminex beads assay; format: functional, organism-based; settings: dose 1.0 µg
Mus musculus [13] = assay: Immunostimulatory activity in BALB/c mouse assessed as increase in serum IL-6 level at 1 ug, im and measured after 2 hrs by multiplex Luminex beads assay; format: functional, organism-based; settings: dose 1.0 µg
Mus musculus [14] = assay: Immunostimulatory activity in BALB/c mouse assessed as increase in serum CCL-4 level at 1 ug, im and measured after 24 hrs by multiplex Luminex beads assay; format: functional, organism-based; settings: dose 1.0 µg
Mus musculus [15] = assay: Immunostimulatory activity in BALB/c mouse assessed as increase in serum CXCL-1 level at 1 ug, im and measured after 2 hrs by ELISA; format: functional, organism-based; settings: dose 1.0 µg
Mus musculus [16] = assay: Immunostimulatory activity in BALB/c mouse assessed as increase in serum CCL-2 level at 1 ug, im and measured after 2 hrs by multiplex Luminex beads assay; format: functional, organism-based; settings: dose 1.0 µg
Mus musculus [17] = assay: Immunostimulatory activity in BALB/c mouse assessed as increase in serum CCL-4 level at 1 ug, im and measured after 2 hrs by multiplex Luminex beads assay; format: functional, organism-based; settings: dose 1.0 µg
Mus musculus [18] = assay: Immunostimulatory activity in BALB/c mouse assessed as increase in serum IL-6 level at 1 ug, im and measured after 24 hrs by multiplex Luminex beads assay; format: functional, organism-based; settings: dose 1.0 µg

SMILES: Cc1sc(NS(=O)(=O)c2cccc3nsnc23)c(C(=O)OC2CCCCC2)c1C
- Activity (Mus musculus [1]): Active
- Activity [2]: Non-Toxic
- Activity (BMDC [3]): 3.08 ng/mL
- viability at 20 h, 10 µM [4]: 102%
- Activity (THP-1): 213%
- Activity (BMDC [5]): 177.8%
- Activity (Mus musculus [6]): inactive
- Activity (Mus musculus [7]): Active
- Activity [8]: Non-Toxic
- Activity (Mus musculus [9]): Active

SMILES: CCOC(=O)c1c(NS(=O)(=O)c2cccc3n[se]nc23)sc(C)c1C
- Activity [2]: Non-Toxic
- Activity (BMDC [3]): 3.11 ng/mL
- viability at 20 h, 10 µM [4]: 109%
- Activity (THP-1): 210.4%
- Activity (BMDC [5]): 147.5%
- Activity (Mus musculus [7]): Active
- Activity [8]: Non-Toxic
- Activity (Mus musculus [9]): Active

SMILES: CCOC(=O)c1c(NS(=O)(=O)c2ccccc2)sc(C)c1C
- Activity (BMDC [3]): 1.16 ng/mL
- viability at 20 h, 10 µM [4]: 102%
- Activity (THP-1): 0.7%
- Activity (BMDC [5]): -10.9%
- Activity (Mus musculus [7]): inactive

SMILES: CCOC(=O)c1c(NS(=O)(=O)c2cccc3nccnc23)sc(C)c1C
- Activity [2]: Non-Toxic
- Activity (BMDC [3]): 4.12 ng/mL
- viability at 20 h, 10 µM [4]: 181%
- Activity (THP-1): 113.3%
- Activity (BMDC [5]): 122%
- Activity (Mus musculus [7]): Active
- Activity [8]: Non-Toxic
- Activity (Mus musculus [9]): Active

SMILES: CCOC(=O)c1c(NS(=O)(=O)c2cccc3nsnc23)sc(C)c1C
- Activity (Mus musculus [1]): Active
- Activity [2]: Non-Toxic
- Activity (BMDC [3]): 1.78 ng/mL
- viability at 20 h, 10 µM [4]: 114%
- Activity (THP-1): 100%
- Activity (BMDC [5]): 100%
- Activity (Mus musculus [6]): inactive
- Activity (Mus musculus [7]): Active
- Activity [8]: Non-Toxic

SMILES: CCCCCCCCCCCCCC(=O)O[C@H](CCCCCCCCCCC)CC(=O)N[C@H]1[C@H](OC[C@H]2O[C@H](O)[C@H](NC(=O)C[C@H](O)CCCCCCCCCCC)[C@@H](OC(=O)C[C@H](O)CCCCCCCCCCC)[C@@H]2O)O[C@H](CO)[C@@H](OP(=O)(O)O)[C@@H]1OC(=O)C[C@@H](CCCCCCCCCCC)OC(=O)CCCCCCCCCCCCC
- Activity (Mus musculus [10]): inactive
- Activity (Mus musculus [11]): Active
- Activity (Mus musculus [12]): inactive
- Activity (Mus musculus [13]): Active
- Activity (Mus musculus [14]): inactive
- Activity (Mus musculus [15]): Active
- Activity (Mus musculus [16]): Active
- Activity (Mus musculus [17]): Active
- Activity (Mus musculus [18]): inactive

SMILES: CCOC(=O)c1c(NC(=O)c2cccc3nsnc23)sc(C)c1C
- Activity (Mus musculus [1]): Active
- Activity (BMDC [3]): 1.37 ng/mL
- viability at 20 h, 10 µM [4]: 59.1%
- Activity (THP-1): -0.4%
- Activity (BMDC [5]): -5.4%
- Activity (Mus musculus [6]): inactive

SMILES: CCOC(=O)c1c(NS(=O)(=O)c2cccc3nsnc23)sc2ccccc12
- Activity (BMDC [3]): 1.11 ng/mL
- viability at 20 h, 10 µM [4]: 99.1%
- Activity (THP-1): 98.3%
- Activity (BMDC [5]): 97%

SMILES: CCOC(=O)c1c(NS(=O)(=O)c2cccc3ccccc23)sc(C)c1C
- Activity [2]: Non-Toxic
- Activity (BMDC [3]): 1.37 ng/mL
- viability at 20 h, 10 µM [4]: 111%
- Activity (THP-1): 5.2%
- Activity (BMDC [5]): -14.1%
- Activity [8]: Non-Toxic

SMILES: CCOC(=O)c1c(NS(=O)(=O)c2cccc3nsnc23)sc(-c2ccccc2)c1C
- Activity (Mus musculus [1]): Active
- Activity [2]: Non-Toxic
- Activity (BMDC [3]): 3.79 ng/mL
- viability at 20 h, 10 µM [4]: 136%
- Activity (THP-1): 338.9%
- Activity (BMDC [5]): 115.7%
- Activity (Mus musculus [6]): inactive
- Activity (Mus musculus [7]): Active
- Activity [8]: Non-Toxic
- Activity (Mus musculus [9]): Active

SMILES: CCOC(=O)c1cc(C)sc1NS(=O)(=O)c1cccc2nsnc12
- Activity (BMDC [3]): 0.81 ng/mL
- viability at 20 h, 10 µM [4]: 93%
- Activity (THP-1): 106.9%
- Activity (BMDC [5]): 78.5%
